Data on two compounds can be found in patent US4131727A, “Method of purifying alcohol dehydrogenase and affinity resin therefor” (President and Fellows of Harvard College, priority 1978, dated 1978).

In one test the target is alcohol dehydrogenase. The test is described as follows: Dissociation of binary complex of alcohol dehydrogenase with NAD. The class given is binding. The note with it: read-out: dissociation constant of the complex. The source says:
The binary complex, in which two molecules of NAD are complexed with 1 molecule of alcohol dehydrogenase, can be prepared simply by mixing NAD with the crude extract of alcohol dehydrogenase. In order to ensure that substantially all of the alcohol dehydrogenase is present in solution in the form of the binary complex, it is desirable to employ an excess of the amount of NAD over that theoretically required. […] Although larger amounts of NAD can be used, there is no advantage in using a concentration above about 10^-3 molar since optimum results are achieved at that concentration with no further improvement even when the concentration of the NAD is 10^-2 molar or even higher, the results being approximately the same at these higher concentrations. The aqueous medium containing the binary complex may be acidified if desired. Satisfactory results are obtained at pH 8.0, but may be improved by decreasing the pH to approximately 7.5 in order to achieve optimum results; however, no further improvement is achieved by further lowering of the pH, the results remaining about the same even at a pH below 6.

Test [1] addresses T1, II-ADH (anodic band of liver alcohol dehydrogenase) (Homo sapiens, UniProt P08319).
T1 construct: Starting with 100 g frozen human liver; from tissue; host or cells: human liver (frozen)
The test is described as follows: Inhibition of purified II-ADH (anodic band, pyrazole-insensitive liver alcohol dehydrogenase) activity. The note with it: 33 micromolar 4-methyl-pyrazole, product after agarose-AMP. The class given is biochemical. From the text:
(§1) However, purification of these enzymes has been a complicated and difficult procedure. […] Elution is preferably carried out with pyrazole solution or with a lower alkanol having at least two carbon atoms, e.g., ethanol, 1-propanol, 1-butanol, 1-pentanol, and the like. Further purification and separation of isoenzymes from the bound portion can be achieved by alcohol gradient elution. The alcohol dehydrogenase of the bound portion can be separated from the NAD after elution, if desired, by conventional dialysis procedures. […] The anodic band of liver alcohol dehydrogenase, as identified by Li et al., Biochem. Biophys. Res. Comm.

Test [2] relates to other forms of liver alcohol dehydrogenase. The test is described as follows: Inhibition of the other (pyrazole-sensitive) forms of liver alcohol dehydrogenase. The class given is biochemical, human. The note with it: 0.2 mM 4-methylpyrazole, 100 mM ethanol, remainder of the purified enzyme forms.
Description: as §1

In test [3] the test system is human liver alcohol dehydrogenase. As to the kind of experiment: Inhibition of alcohol dehydrogenase activity of starting human liver. It counts as biochemical. The note with it: 33 micromolar 4-methyl-pyrazole, pH 10, frozen human liver starting material. Here is the method:
Starting with 100 g frozen human liver having a specific activity of pH 10 of about 0.05 I.U./mg and low inhibition (~ 75%) by 33 micromolar 4-methyl-pyrazole at pH 10 as well as high intensity of stain for the anodic band on starch gel electrophoresis, the liver was homogenized in 2.5 volumes water at 4° C., centrifuged for 30 min. at 30,000 rpm in a 30 rotor to provide 240 ml of clear supernatant assaying at 58 I.U. of pyrazole-insensitive activity with a specific activity of 0.002 I.U./mg.

T1 sequence (P08319 2-380 limits assumed): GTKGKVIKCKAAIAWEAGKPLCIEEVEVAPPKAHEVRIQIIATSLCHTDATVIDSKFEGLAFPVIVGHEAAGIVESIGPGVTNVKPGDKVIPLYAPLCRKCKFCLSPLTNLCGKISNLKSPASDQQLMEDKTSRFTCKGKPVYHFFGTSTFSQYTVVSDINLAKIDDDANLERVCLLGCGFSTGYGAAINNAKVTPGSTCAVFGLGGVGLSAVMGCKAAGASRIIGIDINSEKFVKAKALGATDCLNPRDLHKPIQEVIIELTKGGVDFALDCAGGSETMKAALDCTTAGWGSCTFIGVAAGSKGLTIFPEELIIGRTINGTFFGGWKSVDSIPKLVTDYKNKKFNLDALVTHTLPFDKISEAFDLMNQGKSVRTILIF

On to `NC(=O)c1ccc[n+]([C@@H]2O[C@H](COP(=O)([O-])OP(=O)(O)OC[C@H]3O[C@@H](n4cnc5c(N)ncnc54)[C@H](O)[C@@H]3O)[C@@H](O)[C@H]2O)c1` [NAD], for which the Kd at alcohol dehydrogenase is roughly 1000 nM.

With `Cc1cn[nH]c1` [4-methylpyrazole], in test [1], the “inhibition (in words)” value is recorded as “virtually uninhibited”. In test [2], the inhibition of activity result is given as “more than 90%”. Also, the inhibition in test [3] is reported as ~ 75%.
